Patent US4353923A, “Pharmaceutical composition containing a benzofurancarboxamide derivative as the active ingredient” (Kyowa Hakko Kogyo Co., Ltd., priority 1980, dated 1982)

Experiments:
in vivo = conditions: mouse, po, mice, deaths counted for 7 days
Description: In this example, 3-7 male dd mice weighing 20±1 g were used as one group. Each drug was suspended in a 0.3% CMC solution and orally administered. After the administration, number of dead animals was counted for 7 days to determine LD50 value. As the reference drugs, mepirizole and benzydamine hydrochloride were dissolved in water and orally administered. The drugs and the reference drugs were also administered in the same manner as above in Examples 2-5.

male dd mice [1] = experiment: Muscle relaxant activity: slant test; type: in vivo; conditions: 5 mice per group
Description: (§1) In this example, 5 male dd mice weighing 20±1 g were used as one group. Prior to the experiments, mice were placed on the rod having a diameter of 3 cm and rotating at 5 r.p.m. in the reverse direction of the rotation. […] The drugs were orally administered and the muscle relaxant activity with the passage of time was examined by the following tests.
Slant test: Each mouse was placed on a wire net inclined at an angle of 45° to observe whether it falls or not.
(§2) In each test, the drug was considered to have a muscle relaxant activity when the mouse fell.

male dd mice [2] = experiment: Muscle relaxant activity: rotating rod test; type: in vivo; conditions: 5 mice per group
Description: as §1
Rotating rod test: The same mouse was placed on the rotating rod to observe whether it falls or not within 2 minutes.
as §2

male dd mice [3] = experiment: Muscle relaxant activity: traction test; type: in vivo; conditions: 5 mice per group
Text: as §1
Traction test: Forefeet of the same mouse were placed on a wire to observe whether it falls or not.
as §2

male dd mice [4] = experiment: Anticonvulsant activity: maximal electroshock convulsion test; type: in vivo; conditions: Mus musculus, po, 1 h, 60 min after administration, read-out: Maximal electroshock convulsion test, inhibition ratio; for responders at 50 mg/kg: 50 mg/kg p.o.; for responders at 75 mg/kg: 75 mg/kg p.o.; for responders at 100 mg/kg: 100 mg/kg p.o.; for responders at 150 mg/kg: 150 mg/kg p.o.; for responders at 300 mg/kg: 300 mg/kg p.o.
Text: Anticonvulsant activity was examined according to maximal electroshock convulsion test.
In this experiment, 10 male dd mice weighing 23±1 g were used as one group. Each drug was orally administered to the animals. Sixty minutes after the administration, an electric current (2000 V, 50 mA) was applied to both eyes of the mouse for 0.2 second. Drug activity was judged according to whether tonic extensor seizures were observed or not.

male dd mice [5] = experiment: Analgesic activity: acetic acid writhing; type: in vivo; conditions: Mus musculus, po, 1 h, acetic acid i.p. after 60 min, read-out: Inhibition ratio (writhes, vs control); for inhibition in vivo at 150 mg/kg: 150 mg/kg p.o.
Description: In this experiment, 10 male dd mice weighing 20±1 g were used as one group for examination of analgesic activity. Sixty minutes after oral administration of each drug to each animal, 0.2 ml of a 0.7% acetic acid solution was intraperitoneally administered to the animal. Starting 10 minutes after the administration of acetic acid, the number of writhes occurred in 10 minutes was counted. Average number of writhes and inhibition ratio in comparison with control group were calculated.

male Wistar rats = experiment: Anti-inflammatory activity: carrageenin edema method; type: in vivo; conditions: Rattus norvegicus, po; 150 mg/kg p.o., 3 hours after carrageenin; read-out: Inhibition ratio (paw swelling, vs control)
Description: In this experiment, 5 male Wistar rats weighing 140±10 g were used as one group. Sixty minutes after oral administration of each drug to each animal, 0.1 ml of a 1% carrageenin solution as a phlogistic agent was injected into the plantar surface of the right hind paw of the animal to induce inflammation. The volume of the paw was measured before and 3 hours after the injection of the phlogistic agent. Swelling ratio and inhibition ratio in comparison with control group were calculated.

| SMILES | LD50 at 168 h (in vivo) [mg/kg] | Number of dropped mice, slant test (male dd mice [1]; 150 mg/kg p.o., 1 hr) [mice] | Number of dropped mice, slant test (male dd mice [1]; 150 mg/kg p.o., 2 hr) [mice] | Number of dropped mice, slant test (male dd mice [1]; 150 mg/kg p.o., 3 hr) [mice] | Number of dropped mice, rotating rod test (male dd mice [2]; 75 mg/kg p.o., 1 hr) [mice] | Number of dropped mice, rotating rod test (male dd mice [2]; 75 mg/kg p.o., 2 hr) [mice] | Number of dropped mice, rotating rod test (male dd mice [2]; 75 mg/kg p.o., 3 hr) [mice] | Number of dropped mice, rotating rod test (male dd mice [2]; 150 mg/kg p.o., 1 hr) [mice] | Number of dropped mice, rotating rod test (male dd mice [2]; 150 mg/kg p.o., 2 hr) [mice] | Number of dropped mice, rotating rod test (male dd mice [2]; 150 mg/kg p.o., 3 hr) [mice] | Number of dropped mice, traction test (male dd mice [3]; 75 mg/kg p.o., 1 hr) [mice] | Number of dropped mice, traction test (male dd mice [3]; 75 mg/kg p.o., 2 hr) [mice] | Number of dropped mice, traction test (male dd mice [3]; 150 mg/kg p.o., 1 hr) [mice] | Number of dropped mice, traction test (male dd mice [3]; 150 mg/kg p.o., 2 hr) [mice] | Number of dropped mice, traction test (male dd mice [3]; 150 mg/kg p.o., 3 hr) [mice] | inhibition in vivo at 150 mg/kg (male dd mice [5]) [%] | inhibition in vivo at 150 mg/kg (male Wistar rats) [%] | Number of dropped mice, slant test (male dd mice [1]; 300 mg/kg p.o., 1 hr) [mice] | Number of dropped mice, slant test (male dd mice [1]; 300 mg/kg p.o., 2 hr) [mice] | Number of dropped mice, slant test (male dd mice [1]; 300 mg/kg p.o., 3 hr) [mice] | other results |
| --- | --- | --- | --- | --- | --- | --- | --- | --- | --- | --- | --- | --- | --- | --- | --- | --- | --- | --- | --- | --- | --- |
| Cc1c(C(=O)N(C)C)oc2ccc(F)cc12 [Compound (D), 5-Fluoro-N,N,3-trimethyl-benzo[b]furan-2-carboxamide] | 700 to 1000 | 4 | 4 | 1 | 3 | 1 | 0 | 5 | 5 | 3 | 2 | 1 | 4 | 3 | 2 | 95.4 | 34 |  |  |  | Number of dropped mice, rotating rod test (male dd mice [2]; 50 mg/kg p.o., 1 hr): 0 mice; Number of dropped mice, rotating rod test (male dd mice [2]; 50 mg/kg p.o., 2 hr): 0 mice; Number of dropped mice, rotating rod test (male dd mice [2]; 50 mg/kg p.o., 3 hr): 0 mice; Number of dropped mice, rotating rod test (male dd mice [2]; 100 mg/kg p.o., 1 hr): 5 mice; Number of dropped mice, rotating rod test (male dd mice [2]; 100 mg/kg p.o., 2 hr): 3 mice; Number of dropped mice, rotating rod test (male dd mice [2]; 100 mg/kg p.o., 3 hr): 1 mice; Number of dropped mice, traction test (male dd mice [3]; 50 mg/kg p.o., 1 hr): 0 mice; Number of dropped mice, traction test (male dd mice [3]; 50 mg/kg p.o., 2 hr): 0 mice; Number of dropped mice, traction test (male dd mice [3]; 50 mg/kg p.o., 3 hr): 0 mice; Number of dropped mice, traction test (male dd mice [3]; 75 mg/kg p.o., 3 hr): 0 mice; Number of dropped mice, traction test (male dd mice [3]; 100 mg/kg p.o., 1 hr): 2 mice; Number of dropped mice, traction test (male dd mice [3]; 100 mg/kg p.o., 2 hr): 1 mice; Number of dropped mice, traction test (male dd mice [3]; 100 mg/kg p.o., 3 hr): 0 mice; responders at 50 mg/kg (male dd mice [4]): 10%; responders at 75 mg/kg (male dd mice [4]): 40%; responders at 100 mg/kg (male dd mice [4]): 90%; inhibition in vivo at 50 mg/kg (male dd mice [5]; 50 mg/kg p.o.): 44.2% |
| Cc1ccc2oc(C(=O)N(C)C)c(C)c2c1 [Compound (E), N,N,3,5-Tetramethylbenzo-[b]furan-2-carboxamide] | > 1000 | 1 | 0 | 0 |  |  |  | 1 | 0 | 0 |  |  | 0 | 0 | 0 | 22.6 | 14.7 | 3 | 2 | 1 | Number of dropped mice, rotating rod test (male dd mice [2]; 300 mg/kg p.o., 1 hr): 4 mice; Number of dropped mice, rotating rod test (male dd mice [2]; 300 mg/kg p.o., 2 hr): 2 mice; Number of dropped mice, rotating rod test (male dd mice [2]; 300 mg/kg p.o., 3 hr): 2 mice; Number of dropped mice, traction test (male dd mice [3]; 300 mg/kg p.o., 1 hr): 3 mice; Number of dropped mice, traction test (male dd mice [3]; 300 mg/kg p.o., 2 hr): 1 mice; Number of dropped mice, traction test (male dd mice [3]; 300 mg/kg p.o., 3 hr): 1 mice; responders at 150 mg/kg (male dd mice [4]): 10%; responders at 300 mg/kg (male dd mice [4]): 57.1% |
| COc1ccc2oc(C(=O)N(C)C)c(C)c2c1 [Compound (F), 5-Methoxy-N,N,3-trimethyl-benzo[b]furan-2-carboxamide] | > 1000 |  |  |  |  |  |  | 1 | 0 | 0 |  |  | 1 | 0 | 0 | 11 | 0 | 4 | 2 | 1 | Number of dropped mice, rotating rod test (male dd mice [2]; 300 mg/kg p.o., 1 hr): 5 mice; Number of dropped mice, rotating rod test (male dd mice [2]; 300 mg/kg p.o., 2 hr): 5 mice; Number of dropped mice, rotating rod test (male dd mice [2]; 300 mg/kg p.o., 3 hr): 3 mice; Number of dropped mice, traction test (male dd mice [3]; 300 mg/kg p.o., 1 hr): 5 mice; Number of dropped mice, traction test (male dd mice [3]; 300 mg/kg p.o., 2 hr): 3 mice; Number of dropped mice, traction test (male dd mice [3]; 300 mg/kg p.o., 3 hr): 1 mice; responders at 150 mg/kg (male dd mice [4]): 30%; responders at 300 mg/kg (male dd mice [4]): 100% |
| Cc1c(C(=O)N(C)C)oc2ccc(Cl)cc12 [Compound (G), 5-Chloro-N,N,3-trimethyl-benzo[b]furan-2-carboxamide] | > 1000 | 3 | 2 | 2 | 3 | 1 | 1 | 5 | 4 | 3 | 1 | 1 | 3 | 3 | 2 | 91.4 | 45.7 | 5 | 5 | 5 | Number of dropped mice, traction test (male dd mice [3]; 75 mg/kg p.o., 3 hr): 1 mice; responders at 50 mg/kg (male dd mice [4]): 0%; responders at 75 mg/kg (male dd mice [4]): 40%; responders at 100 mg/kg (male dd mice [4]): 100% |
